{"source": "patent US12053506B2", "about": "“Romo1-derived antimicrobial peptides and variants thereof” (priority 2019, dated 2024)", "key": {"[1]": {"system": "Pseudomonas aeruginosa (ATCC 27853)", "assay_type": "cell-based", "method_in_brief": "(§1)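 Bacteria grown in 3% TSB at 37° C, diluted in 10 mM sodium phosphate/1% TSB to 1×10^5 CFU/ml in wells, exposed to peptides (0–300 μg/ml) for 1 h at 37° C. Mixtures plated on TS agar for 18 h at 37° C; MBC is the lowest concentration giving no colonies.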"}, "[2]": {"system": "Staphylococcus aureus (ATCC 29213)", "assay_type": "cell-based", "method_in_brief": "as §1"}, "[3]": {"system": "Acinetobacter baumannii (ATCC 19606)", "experiment": "Minimum bactericidal concentration (MBC) assay", "assay_type": "cell-based", "method": "(§2) The minimum bactericidal concentration assay was the same as the method used in Example 1.\n(§3) Specifically, each type of bacteria was cultured in 3% (w/v) TSB (Tryptic Soy Broth) liquid medium at 37° C. and 200 rpm for 4 hours, and then further cultured under the same conditions for 3 hours to a concentration of 5×10^6 CFU/ml. Strain solutions were prepared by diluting each of the […] of 2×10^5 CFU/ml.\n(§4) Then, the KU-5878 peptide at varying concentrations (0 μg/ml to 300 μg/ml) was dispensed into each well of a 96-well microplate, and 100 μl (1×10^5 CFU/ml) of each of the prepared strain solutions was added thereto, mixed therewith, and allowed to react with the peptide in an incubator at 37° C. for 1 hour.\n(§5) In addition, 10 μl of each reaction solution of the peptide and the strain was plated on the TS agar plate at a constant size, and incubated in an incubator at 37° C. for 18 hours, and then colony formation on the plate was checked. The minimum bactericidal concentration was defined as the minimum concentration of the peptide at which no colony was formed, and the experimental results are shown in Table 2 below."}, "[4]": {"system": "Bacillus subtilis (ATCC 6633)", "experiment": "Minimum bactericidal concentration (MBC) assay", "assay_type": "cell-based", "method": "as §2, §3, §4, §5"}, "[5]": {"system": "Enterobacter aerogenes (ATCC 13048)", "experiment": "Minimum bactericidal concentration (MBC) assay", "assay_type": "cell-based", "method": "as §2, §3, §4, §5"}, "[6]": {"system": "Enterococcus faecalis (ATCC 19433)", "experiment": "Minimum bactericidal concentration (MBC) assay", "assay_type": "cell-based", "method": "as §2, §3, §4, §5"}, "[7]": {"system": "Enterococcus faecium (ATCC 19434)", "experiment": "Minimum bactericidal concentration (MBC) assay", "assay_type": "cell-based", "method": "as §2, §3, §4, §5"}, "[8]": {"system": "Escherichia coli (ATCC 25922)", "experiment": "Minimum bactericidal concentration (MBC) assay", "assay_type": "cell-based", "method": "as §2, §3, §4, §5"}, "[9]": {"system": "Klebsiella pneumoniae (ATCC 13883)", "experiment": "Minimum bactericidal concentration (MBC) assay", "assay_type": "cell-based", "method": "as §2, §3, §4, §5"}, "[10]": {"system": "Streptomyces sindenensis (ATCC 12392)", "experiment": "Minimum bactericidal concentration (MBC) assay", "assay_type": "cell-based", "method": "as §2, §3, §4, §5"}, "[11]": {"system": "Multidrug-resistant A. baumannii", "settings": "Multidrug-resistant", "method": "as §2, §3, §4\n(§6) In addition, 10 μl of each reaction solution of the peptide and the strain was plated on the TS agar plate at a constant size, and incubated in an incubator at 37° C. for 18 hours, and then colony formation on the plate was checked.\n(§7) Meanwhile, the multidrug-resistant Pseudomonas aeruginosa, multidrug-resistant Acinetobacter and multidrug-resistant Klebsiella in Table 2 below were bacteria isolated from patients at Korea University Anam Hospital. […] Then, these bacteria were used in the experiment."}, "[12]": {"system": "Multidrug-resistant K. pneumoniae", "settings": "Multidrug-resistant", "method": "as §2, §3, §4, §6, §7"}, "[13]": {"system": "Staphylococcus aureus, Pseudomonas aeruginosa, methicillin-resistant Staphylococcus aureus and multidrug-resistant Pseudomonas aeruginosa", "experiment": "Bacteria remaining in the blood of intravenously infected mice", "assay_type": "in vivo, mice (C57BL/6)", "settings": "10 mg/kg intravenous 1 hour after infection; blood collected 40 minutes after injection; compared with LL-37, magainin 2, daptomycin", "method": "Specifically, Staphylococcus aureus, Pseudomonas aeruginosa, methicillin-resistant Staphylococcus aureus and multidrug-resistant Pseudomonas aeruginosa was cultured in 3% (w/v) TSB liquid medium at 37° C. and 200 rpm for 4 hours, and then further cultured under the same conditions for 3 hours to a concentration of 5×10^9 CFU/ml. Strain solutions were prepared by diluting each of the further cultured strains with PBS solution to a final concentration of 1×10^5 CFU/μl.\nNext, 100 μl of each strain solution was injected intravenously (IV) into the tail vein of each of 10-week-old male mice (C57BL/6). After one hour, KU-5878 was intravenously injected at a concentration of 10 mg/kg. As a control, PBS was intravenously injected at a concentration of 10 mg/kg, and as a positive control, LL-37, magainin 2, or daptomycin was intravenously injected at a concentration of 10 mg/kg.\n40 minutes after the intravenous injection of each drug, about 1 cm from the tail end of each mouse was cut using surgical scissors, and 10 μl of the blood at the end of the cut was collected and diluted in PBS. The diluted blood sample was plated on a previously prepared TSB agar plate and incubated in an incubator at 37° C. for 18 hours, and the formed colonies were counted for comparison."}}, "note": "No end group written: not given here."}
{"sequence": "KTMMQSGGTFGTFMAIGMGIR [KU-5878]", "values": [{"measurement": "MBC (μg/ml) value against Pseudomonas aeruginosa", "setting": "[1]; ATCC 27853", "result": 100, "unit": "µg/mL"}, {"measurement": "MBC value (μg/ml) against Pseudomonas aeruginosa", "setting": "[1]; ATCC 27853, 1 h", "result": 100, "unit": "µg/mL"}, {"measurement": "MBC Pseudomonas aeruginosa", "setting": "[1]; Tables 11-15, no unit printed", "result": 100, "unit": "µg/mL"}, {"measurement": "MBC (μg/ml) value against Staphylococcus aureus", "setting": "[2]; ATCC 29213", "result": 100, "unit": "µg/mL"}, {"measurement": "MBC value (μg/ml) against Staphylococcus aureus", "setting": "[2]; ATCC 29213, 1 h", "result": 100, "unit": "µg/mL"}, {"measurement": "MBC Staphylococcus aureus", "setting": "[2]; Tables 11-15, no unit printed", "result": 100, "unit": "µg/mL"}, {"measurement": "MBC value (μg/ml), Acinetobacter baumannii", "setting": "[3]", "result": 100, "unit": "µg/mL"}, {"measurement": "MBC value (μg/ml), Bacillus subtilis", "setting": "[4]", "result": 90, "unit": "µg/mL"}, {"measurement": "MBC value (μg/ml), Enterobacter aerogenes", "setting": "[5]", "result": 90, "unit": "µg/mL"}, {"measurement": "MBC value (μg/ml), Enterococcus faecalis", "setting": "[6]", "result": 85, "unit": "µg/mL"}, {"measurement": "MBC value (μg/ml), Enterococcus faecium", "setting": "[7]", "result": 85, "unit": "µg/mL"}, {"measurement": "MBC value (μg/ml), Escherichia coli", "setting": "[8]", "result": 85, "unit": "µg/mL"}, {"measurement": "MBC value (μg/ml), Klebsiella pneumoniae", "setting": "[9]", "result": 100, "unit": "µg/mL"}, {"measurement": "MBC value (μg/ml), Streptomyces sindenensis", "setting": "[10]", "result": 95, "unit": "µg/mL"}, {"measurement": "MBC value (μg/ml), Multidrug-resistant A. baumannii", "setting": "[11]", "result": 110, "unit": "µg/mL"}, {"measurement": "MBC value (μg/ml), Multidrug-resistant K. pneumoniae", "setting": "[12]", "result": 100, "unit": "µg/mL"}, {"measurement": "number of bacteria remaining in the blood vessels of the mice", "setting": "[13]", "result": "most greatly decreased"}]}
